The values below come from patent publication US5700774A, “Compositions comprising bone morphogenic proteins and truncated parathyroid hormone related peptide, and methods of inducing cartilage by administration of same” (Genetics Institute, Inc., priority 1996, dated 1997).

In this assay the test system is cell lines derived from E13 mouse limb buds. As to the kind of experiment: Northern analysis of tissue specific mRNA expression in limb bud cell lines. Conditions: PTHrP1-34 alone, 100 ng/ml, 1, 2, 4 or 8 days. The assay is classed as cell-based. As to the method:
PTHrP was tested for its effect on cell lines derived from E13 mouse limb buds either alone or in combination with BMP-2. Cells were grown to confluence in DME medium supplemented with 10% fetal calf serum (FCS). At confluence, cells were transferred to DME medium supplemented with 1% FCS and cultured for 1, 2, 4 or 8 days in the presence of either BMP-2 (100 ng/ml), PTHrP1-34 (100 ng/ml)(Peninsular Laboratories Inc). or a combination of BMP-2 and PTHrP1-34. Northern analysis was used to determine expression of tissue specific mRNAs for cartilage (proteoglycan core protein, collagen type II and decorin), bone (osteocalcin, alkaline phosphatase and collagen type I) and hypertrophic cartilage (collagen type X).

As to “PTHrP1-34: truncated peptide which comprises the first 34 amino acids of PTHrP (Peninsular Laboratories Inc)”, the “expression of any of the tissue specific mRNAs (cartilage, bone, hypertrophic cartilage markers)” value is “did not induce expression”.
